Where two headings read alike, the source gives them in different places.

The results in this text go back to paper PMC12605013, “SAG1.3-derived Frizzled-targeting small-molecule compounds” (The Journal of Biological Chemistry, 2025).

The target in one test is T1, Nluc-FZD4 (Homo sapiens, UniProt Q9ULV1).
T1 construct: expressed in transfected cells; host or cells: ΔFZD1–10 HEK293T cells
T1 sequence (Q9ULV1 37-537): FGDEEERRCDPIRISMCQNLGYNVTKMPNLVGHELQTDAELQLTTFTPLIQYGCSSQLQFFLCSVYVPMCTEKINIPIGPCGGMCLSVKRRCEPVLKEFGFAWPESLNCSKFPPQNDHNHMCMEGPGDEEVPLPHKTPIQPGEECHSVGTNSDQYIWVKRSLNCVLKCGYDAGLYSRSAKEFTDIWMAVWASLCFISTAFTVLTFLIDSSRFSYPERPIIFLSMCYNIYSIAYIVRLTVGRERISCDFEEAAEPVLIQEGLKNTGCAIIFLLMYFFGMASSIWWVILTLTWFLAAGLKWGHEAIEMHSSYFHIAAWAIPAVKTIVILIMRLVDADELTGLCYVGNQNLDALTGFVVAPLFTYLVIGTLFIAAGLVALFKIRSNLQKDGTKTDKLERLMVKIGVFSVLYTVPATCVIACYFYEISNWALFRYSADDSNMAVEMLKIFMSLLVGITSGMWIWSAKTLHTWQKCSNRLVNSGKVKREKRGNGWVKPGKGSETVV
The experiment in a line: BRET-based BODIPY-cyclopamine competition binding at Nluc-FZD4. As to conditions: BODIPY-cyclopamine 200 nM; ΔFZD1-10 HEK293T cells; read-out: pIC50 (11) mean ± SEM, Nluc-FZD4 (converted). The procedure:
(§1) After 24 h, cells were washed once with Hanks' balanced salt solution (HBSS), followed by the addition of 80 μl of HBSS. Next, 10 μl of the competitive ligand, that is, the tested SAG1.3 derivative (either in different concentrations for the concentration–response curves or at a final concentration of 10 μM for the first screens) and 10 μl of the fluorescent tracer BODIPY–cyclopamine (final concentration: 300 nM for the first screens, 200 nM for the concentration–response experiments) were added. All serial dilutions were prepared in HBSS. The cells were incubated for 90 min at 37 °C without additional CO2, after which 10 μl of luciferase substrate diluted in HBSS (furimazine; Promega, N1572, final dilution: 1:1000 for first screening) and coelenterazine h (Biosynth; final concentration: 5 μM for concentration–response experiments) were added to the cells. Following a 10 min incubation period in the dark, the measurement was started on a BMG Labtech ClarioStar or TECAN Spark multimode microplate reader, prewarmed to 37 °C. Nluc bioluminescence was detected between 460 and 490 nm (ClarioStar) or 460 and 500 nm (TECAN Spark). The emission of the fluorescent tracer was detected between 520 and 550 nm (ClarioStar) or between 520 and 560 nm (TECAN Spark). […]

In a further test the test system is human FZD5. The experiment in a line: TOPFlash reporter gene assay in ΔFZD1–10 HEK293T cells transfected with HiBiT-FZD5. It counts as cell-based. Particulars: for IC50: Homo sapiens, HEK-293T, 300 ng/ml WNT-3A, HiBiT-FZD5.
A further test has as its target T2, Nluc-FZD7 (Homo sapiens, UniProt O75084).
T2 construct: expressed in transfected cells; host or cells: ΔFZD1–10 HEK293T cells
The test can be described thus: BRET-based BODIPY-cyclopamine competition binding at Nluc-FZD7. As to conditions: BODIPY-cyclopamine 200 nM; ΔFZD1-10 HEK293T cells; read-out: pIC50 (11) mean ± SEM, Nluc-FZD7 (converted). The procedure:
as §1

Test [1] addresses T3, muscarinic acetylcholine M1 receptor (Homo sapiens, UniProt P11229).
T3 construct: HA (N); expressed in transfected cells; host or cells: HEK293A cells
T3 sequence (P11229 2-460): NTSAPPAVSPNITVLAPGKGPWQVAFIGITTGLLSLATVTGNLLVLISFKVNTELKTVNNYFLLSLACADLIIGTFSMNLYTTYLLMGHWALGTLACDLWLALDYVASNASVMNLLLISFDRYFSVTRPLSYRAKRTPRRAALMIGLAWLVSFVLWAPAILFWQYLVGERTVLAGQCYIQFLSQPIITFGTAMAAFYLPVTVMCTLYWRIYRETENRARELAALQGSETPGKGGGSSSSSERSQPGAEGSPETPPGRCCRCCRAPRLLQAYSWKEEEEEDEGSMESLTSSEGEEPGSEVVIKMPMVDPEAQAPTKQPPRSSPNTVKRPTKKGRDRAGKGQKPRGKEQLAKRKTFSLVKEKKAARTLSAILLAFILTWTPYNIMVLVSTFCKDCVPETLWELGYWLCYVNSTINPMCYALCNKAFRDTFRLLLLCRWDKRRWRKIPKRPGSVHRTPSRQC
The experiment in a line: BRET-based Venus-mGsq recruitment assay at M1R-Nluc. It counts as cell-based. The procedure: The transfected cells were seeded at a density of 40,000 cells per well into a white opaque 96-well plate. […] Following a 10 min incubation period in the dark, the measurement was started on a TECAN Spark multimode microplate reader, prewarmed to 37 °C. After the three baseline measurements, the ligands diluted in HBSS were added (10 μl) and the measurement continued for a further 15 min. Nluc bioluminescence was detected between 460 and 500 nm. The emission of Venus was detected between 520 and 560 nm.
Figure S3. […] Experiments were performed in HEK293 cells.

With `CC(=O)Nc1cccc(C(=O)NC2CCC(N(Cc3cccc(-c4ccncc4)c3)C(=O)c3sc4ccccc4c3Cl)CC2)c1` (centres unmarked) [compound 11, N-((1r,4r)-4-(3-Acetamidobenzamido)cyclohexyl)-3-chloro-N-(3-(pyridin-4-yl)benzyl)benzo[b]thiophene-2-carboxamide], the IC50 at Nluc-FZD4 is 955 nM; in the test on human FZD5 (equal to the pIC50, read-out: IC50, inhibition of WNT-3A-induced TOPFlash response), 1200 nM; in the test with human FZD5 (read-out: pIC50, inhibition of WNT-3A-induced TOPFlash response (converted)) it was 1200 nM; on Nluc-FZD7, 891 nM. In addition, the “Effect on WNT surrogate-induced TOPFlash signal” value with human FZD5 (WNT surrogate 250 pM, coaddition of compound) is recorded as “could also be blocked”. In addition, the “TOPFlash response to compound alone” value in the test with human FZD5 (absence of added WNT-3A) was “not inducing any effect”. Besides, in test [1] (10 µM compound +/- carbachol), the “Effect on carbachol-induced M1-mediated mini-Gsq response” value is listed as “nor affected the concentration-dependent M1-mediated mini-Gsq response”. The “mini-Gsq recruitment, compound alone (agonist mode)” value in test [1] (increasing concentrations of compound) is “neither elicited a mini-Gsq recruitment on its own”.
